US6696482B2, “Formulations for hydrophobic pharmaceutical agents” (Sugen, Inc., priority 1997, dated 2004)
In brackets after ≈: the same amount, converted by molar mass. Where two headings read alike, the source gives them in different places.

What was measured:
[1] = Log of ratio of octanol to water solubility (individually determined); assay type: physicochemical; details: solubilities individually determined
Text: (§1) The indolinone-based compound is a planar aromatic compound and is non-ionizable in the pharmaceutically acceptable range.

[2] = Solubility of the indolinone-based compound in water and excipients; assay type: physicochemical
Procedure: An increase in the indolinone-based compound's aqueous solubility in hydrotropic solute solutions like nicotinamide and pyridoxine hydrochloride was observed. It is soluble (15-20 mg/mL) in polar excipients like polyethylene glycols of 300 and 400 MW.
as §1

[3] = test system: VEGF-induced endothelial cell growth; assay: Inhibition of VEGF-induced endothelial cell growth; assay type: cell-based; details: in words
Procedure: Indolinone-based compounds of the invention have been tested for their ability to activate or inhibit protein kinases in biological assays. The methods used to measure indolinone-based compound modulation of protein kinase function are described in U.S. application Ser. No. 08/702,282, filed Aug. 23, 1996, incorporated herein by reference in its entirety, a including any drawings. In particular, indolinone-based compounds of the invention were tested for their ability to inhibit the FLK protein kinase.

Compound: Cc1cc(C)c(C=C2C(=O)Nc3ccccc32)[nH]1 [3-[(2,4-dimethylpyrrol-5-yl)methylene]-2-indolinone]
- log of ratio of octanol to water solubility [1]: 5.6
- influence of pH of the aqueous media on aqueous solubility [2]: did not influence
- solubility ([2]; aromatic solvents like benzyl alcohol, organic solvent or mixture, read-out: solubility in aromatic solvents): 10 to 15 mg/mL (≈ 42 to 62.9 mM)
- aqueous solubility in hydrotropic solute solutions ([2]; hydrotropic solute solutions like nicotinamide and pyridoxine hydrochloride): increase
- solubility in water, water miscible non-aqueous solvents, and oils ([2]; in words): low solubility
- solubility ([2]; polyethylene glycols of 300 and 400 MW, organic solvent or mixture, read-out: solubility in polar excipients): 15 to 20 mg/mL (≈ 62.9 to 83.9 mM)
- solubility ([2]; polyglycolized lipids like LABPASOL and GELUCIRE, oil or lipid, read-out: solubility in polyglycolized lipids): 25 to 30 mg/mL (≈ 105 to 126 mM)
- solubility ([2]; water, read-out: solubility in water): 1e-05 mg/mL (≈ 4.2e-05 mM)
- inhibition of VEGF-induced endothelial cell growth [3]: specific and potent inhibitor

Compound: CC(C)(C)c1ccc(Oc2cccc3nc(N)nc(N)c23)cc1 [Procedure B 1, 2,4-Diamino-5-(4-tert-butylphenoxy)quinazoline]
- melting point: 226 to 228 °C

Compound: COc1ccc(Oc2cccc3nc(N)nc(N)c23)cc1OC [Procedure B 2, 2,4-Diamino-5-(3,4-dimethoxyphenoxy)quinazoline]
- melting point: 301 to 302 °C

Compound: CN(C)c1cccc(Oc2cccc3nc(N)nc(N)c23)c1 [Procedure B 3, 2,4-Diamino-5-(3-dimethylaminophenoxy)quinazoline]
- melting point: 224 to 225 °C (dec.)

Compound: Nc1nc(N)c2c(Oc3ccccc3F)cccc2n1 [Procedure B 4, 2,4-Diamino-5-(2-fluorophenoxy)quinazoline]
- melting point: 301 to 303 °C

Compound: Nc1nc(N)c2c(Oc3cccc(Br)c3)cccc2n1 [Procedure B 5, 2,4-Diamino-5-(3-bromophenoxy)quinazoline]
- melting point: 292 to 295 °C

Compound: COc1ccccc1Oc1cccc2nc(N)nc(N)c12 [Procedure B 6, 2,4-Diamino-5-(2-methoxyphenoxy)quinazoline]
- melting point: 208 to 209 °C (dec.)

Compound: Nc1nc(N)c2c(Oc3ccc(OCc4ccccc4)cc3)cccc2n1 [Procedure B 8, 2,4-Diamino-5-(4-benzyloxyphenoxy)quinazoline]
- melting point: 175 to 177 °C

Compound: CN(C)CCCOc1cccc2nc(N)nc(N)c12 [Procedure B 9, 2,4-Diamino-5-(3-dimethylaminopropoxy)quinazoline]
- melting point: 193 to 195 °C

Compound: COc1ccc(Oc2cccc3ncnc(N)c23)cc1 [Procedure C 1, 4-Amino-5-(4-methoxyphenoxy)quinazoline]
- melting point: 192 to 195 °C

Compound: CN(C)c1cccc(Oc2cccc3ncnc(N)c23)c1 [Procedure C 2, 4-Amino-5-(3-dimethylaminophenoxy)quinazoline]
- melting point: 179 to 181 °C

Compound: Nc1ncnc2cccc(Oc3cccnc3)c12 [Procedure C 3, 4-Amino-5-(3-pyridinoxy)quinazoline]
- melting point: 245 to 247 °C

Compound: Nc1ncnc2cccc(Oc3ccc(OCc4ccccc4)cc3)c12 [Procedure C 4, 4-Amino-5-(4-benzyloxyphenoxy)quinazoline]
- melting point: 170 to 171 °C

Compound: Nc1ncnc2cccc(Oc3ccc4c(c3)OCO4)c12 [Procedure C 5, 4-Amino-5-(3,4-methylenedioxyphenoxy) quinazoline]
- melting point: 201 to 203 °C

Compound: Nc1nc(N)c2c(-n3cccc3)cccc2n1 [Procedure D 4, 2,4-Diamino-5-(pyrrol-1-yl)quinazoline]
- melting point: 248 to 250 °C

Compound: Nc1ncnc2cccc(Oc3ccc(F)cc3)c12 [Similar synthetic processes 1, 4-Amino-5-(4-fluorophenoxy)quinazoline]
- melting point: 188 to 190 °C
